Each structure is given as a SMILES string.

Experimental findings from patent EP0452507A1, “MEDICINE COMPRISING TOCOPHERYL GLYCOSIDE AS ACTIVE INGREDIENT” (NIPPON HYPOX LABORATORIES INCORPORATED, priority 1989, dated 1991) are described below.

Common to all, as to format: in vivo, rats
For series [1], the system named is antigen-adjuvant-induced inflammation. Nature of the series: antigen-adjuvant-induced inflammation, right hind paw swelling by volumetry. The note with it: for inhibition activity against antigen-adjuvant-induced inflammations / average of the swelling ratios: 10 mg/kg intraperitoneally; for average of the swelling ratios: 0.5 hour after administration of antigen and adjuvant, versus Control group. As to the method: At first, five groups each consisting of five SD male rats weighing 180 to 220 g (total 25 rats) were prepared, and each rat was measured for a size of the subplantar region of the right hind paw. As an antigen to cause an antigen-adjuvant-induced inflammation, 0.2 mg/rat of egg-white albumin was used. Further, as an immune aid (adjuvant), a mixture consisting of 4 mg/rat of aluminum hydroxide and 0.1 ml/rat of pertussis vaccine was prepared.
One out of the five groups was used as Control group. A physiological saline solution of 10 % Nikkol (trade name, dissolving aid, supplied by Nikko Chemical Co., Ltd.) was administered intraperitoneally to each rat, and 0.5 hour after the administration of the physiological saline solution of 10 % Nikkol, the above antigen and adjuvant were administered intracutaneously into the subplantar region of the right hind paw. Then, 0.5, 1, 2, 4, 6, 12 and 24 hours after the administration of the antigen and adjuvant, the swelling on the subplantar region of the right hind paw of each rat was measured by volumetry. And, the average of swelling ratios of the group in every measurement was determined on the basis of the measurement values of the sizes of subplantar regions of the right hind paws of the rats obtained before the administration of the physiological saline solution of 10 % Nikkol.
One of the remaining four groups was used as Example group @. A physiological saline solution of 10 % Nikkol containing VIE-MAN was administered intraperitoneally into each rat of this group in such a dose that the amount of VIE-MAN was 10 mg/kg, and 0.5 hours after the administration of the physiological saline solution of 10 % Nikkol containing VIE-MAN, the above antigen and adjuvant were administered intracutaneously into the subplantar region of the right hind paw. Thereafter, the swelling on the subplantar region of the right hind paw of each rat was measured in the same manner as that for Control group, and the average of swelling ratios of the group in every measurement was determined.
The same procedure as that for Example group ⑧ was carried out except that a physiological saline solution of 10 % Nikkol containing hydrocortisone which was an anti-inflammatory preparation (immunosuppressive preparation) in place of the physiological saline solution of 10 % Nikkol containing VIE-MAN was administered intraperitoneally in such a dose that the amount of the hydrocortisone was 10 mg/kg.
The same procedure as that for Example group ⑧ was carried out except that a physiological saline solution of 10 % Nikkol containing diphenhydramine which was an antihistamine preparation in place of the physiological saline solution of 10 % Nikkol containing VIE-MAN was administered intraperitoneally in such a dose that the amount of the diphenhydramine was 10 mg/kg.
The same procedure as that for Example group ⑧ was carried out except that a physiological saline solution of 10 % Nikkol containing indomethacin which was a nonsteroidal anti-inflammatory preparation (antipyretic analgesic antiphlogistic preparation) in place of the physiological saline solution of 10 % Nikkol containing VIE-MAN was administered intraperitoneally in such a dose that the amount of the indomethacin was 10 mg/kg.
At first, four groups each consisting of five male SD rats weighing 180 to 220 g (total 20 rats) were prepared, and each rat was measured for a size of the subplantar region of the right hind paw. As an antigen to cause an antigen- adjuvant-induced inflammation, 0.2 mg/rat of egg-white albumin was prepared. Further, as an immune aid (adjuvant), a mixture consisting of 4 mg/rat of aluminum hydroxide and 0.1 ml/rat of pertussis vaccine was prepared.
One out of the four groups was used an Control group, and the procedure for Control group in Example 4 was repeated to determine the average of the swelling ratios as a group unit.

Series [2] concerns stomach (mucosal ulcer in the glandular portion). On the procedure: 15 male SD rats weighing 180 to 220 g were used. These rats were fasted for 24 hours, and separated to three groups each consisting of 5 rats.
Then, one group was used as Control group. A physiological saline solution of 10 % Nikkol was administered intraperitoneally, and the rats were sacrificed with ether 16 hours after the administration. The stomach of each rat was removed, and after 10 ml of physiological saline was injected into the stomachs, the stomachs were fixed by immersing them in a 1 % formalin for 10 minutes. Each stomach was dissected along the greater curvatura, and the length (mm) of mucosal ulcer which occurred in the glandular portion was measured under an anatomical microscope (x 10). The average of the ulcer lengths of the five rats was taken as an ulcer index.
One out of the remaining two groups was used as Example group @. The procedure for Control group was repeated except that a physiological saline solution of 10 % Nikkol containing VIE-MAN in place of the physiological saline solution of 10 % Nikkol was administered intraperitoneally in such a dose that the amount of VIE-MAN was 300 mg/kg, and the ulcer index was determined.
The remaining one group was used as Comparative Example group ⓘ. The procedure for Example group 17 was repeated except that a physiological saline solution of 10 % Nikkol containing indomethacin, which was a nonsteroidal anti-inflammatory preparation (antipyretic analgesic antiphlogistic preparation), in place of the physiological saline solution of 10 % Nikkol was administered intraperitoneally in such a dose that the amount of the indomethacin was 20 mg/kg, and the ulcer index was determined.

The next series has as its system adjuvant arthritis. The series is described as follows: adjuvant arthritis (Freund's complete adjuvant), right hind paw swelling by volumetry. The note with it: Example 6, Fig. 5; for inhibition activity against acute inflammation (before the 14th day) and adjuvant arthritis (after 17th day): VIE-MAN 10 and 30 mg/kg/day, depending upon the dose, indomethacin 10 mg/kg/day, intraperitoneally. As to the method: 24 male SD rats weighing 180 to 220 g were used, and measured for a size of the subplantar region of the right hind paw. As a substance to cause adjuvant arthritis, 0.05 ml/rat of Freund's complete adjuvant [ADJUVANT COMPLETEFREUND, trade name, supplied by Difco] was used.
Then, the above Freund's complete adjuvant was administered intracutaneously into the subplantar region of right hind paw of each rat, and 24 hours after the administration, the swelling on the right hind paw of each rat was measured by volumetry to determine a swelling ratio. The above rats were separated into four groups each consisting of 6 rats such that the average swelling ratio of one group was nearly equal to that of another group.
Thereafter, one out of the four groups was used as Control group. A physiological saline solution of 10 % Nikkol was administered intraperitoneally to each rat of this group for the consecutive 22 days after the group separation, and the swelling on the right hind paw was measured by volumetry every day after the administration of the physiological saline solution of 10 % Nikkol. The average of swelling ratios as a group for each day was determined on the basis of the values of the sizes of the subplantar regions of the right hind paws obtained by the measurement prior to the administration of the Freund's complete adjuvant.
The procedure for Control group was repeated except that a physiological saline solution of 10 % Nikkol containing VIE-MAN in place of the physiological saline solution of 10 % Nikkol was administered intraperitoneally in such a dose that the amount of VIE-MAN was 10 mg/kg/day.
The procedure for Control group was repeated except that a physiological saline solution of 10 % Nikkol containing VIE-MAN in place of the physiological saline solution of 10 % Nikkol was administered intraperitoneally in such a dose that the amount of VIE-MAN was 30 mg/kg/day.
The remaining one group was used as Comparative Example group ⓕ. The procedure for Example groups @ and @ was repeated except that a physiological saline solution of 10 % Nikkol containing indomethacin which was a nonsteroidal anti-inflammatory preparation (antipyretic analgesic antiphlogistic preparation) in place of the physiological saline solution of 10 % Nikkol was administered intraperitoneally in such a dose that the amount of the indomethacin was 10 mg/kg/day, and the average of swelling ratios as a group was determined.

Consider `Cc1c(C)c2c(c(C)c1OC1OC(CO)C(O)C(O)C1O)CCC(C)(CCCC(C)CCCC(C)CCCC(C)C)O2` (racemic) [VIE-GLU, dl-α-tocopheryl-,8-D-glucoside], for which the “inhibition activity against antigen-adjuvant-induced inflammations” value in series [1] (Example 5, Fig. 4, 10 mg/kg) was “almost as superior as VIE-MAN”. Moreover, the “average of the swelling ratios” value in series [1] (Example 5, Fig. 4) is “significantly lower than that of the swelling ratios of Control group”. In addition, in series [2] (rat, in vivo), the “side effect on the digestive system” value was “nearly similar results to that of the test on VIE-MAN”.

Consider `COc1ccc2c(c1)c(CC(=O)O)c(C)n2C(=O)c1ccc(Cl)cc1` [indomethacin, reference compound], for which the “inhibition activity against antigen-adjuvant-induced inflammations” value in series [1] (Example 4, Fig. 3) is “significant inhibition activity at and after 2 hours”. Moreover, in series [1] (Example 4, Fig. 3, both 10 mg/kg intraperitoneally), the “inhibition activity against antigen-adjuvant-induced inflammation compared with VIE-MAN” value is recorded as “much lower than that of VIE-MAN”. Further, in the series on adjuvant arthritis, the “inhibition activity against acute inflammation (before the 14th day) and adjuvant arthritis (after 17th day)” value was “showed inhibitory activity against both acute inflammation and adjuvant arthritis”. Further, in the series with adjuvant arthritis (indomethacin 10 mg/kg/day intraperitoneally), the “activity against acute inflammation and adjuvant arthritis compared with VIE-MAN” value is recorded as “much lower than that of VIE-MAN”. Further, in series [2] (Example 8, Fig. 7, 20 mg/kg intraperitoneally, fasted rats, 16 hours after administration), the ulcer index result is on record as “about 30 mm”.

Take `Cc1c(C)c2c(c(C)c1OC1OC(CO)C(O)C(O)C1O)CCC(C)(CCCC(C)CCCC(C)CCCC(C)C)O2` (racemic) [VIE-MAN, dl-a-tocopheryl-a-D-mannoside]: in series [1] (Example 4, Fig. 3), the “inhibition activity against antigen-adjuvant-induced inflammations” value was “excellent inhibition activity” and the “average of the swelling ratios” value is “significantly lower than that of the swelling ratios of Control group”. Further, in the series on adjuvant arthritis (10 and 30 mg/kg/day intraperitoneally for 22 days, versus Control group), the “average of the swelling ratios” value is “significantly lower than that of the swelling ratios of Control group”. Besides, the “inhibition activity against acute inflammation (before the 14th day) and adjuvant arthritis (after 17th day)” value in the series with adjuvant arthritis is listed as “excellent inhibition activity”. In addition, the “mucosal ulcer (ulcer index)” value in series [2] (rat, in vivo, ip, 300 mg/kg) is on record as “no mucosal ulcer was observed”.
